The record followed here is patent US20240174690A1, “ANNULATED 2-AMINO-3-CYANO THIOPHENES AND DERIVATIVES FOR THE TREATMENT OF CANCER” (BOEHRINGER INGELHEIM INTERNATIONAL GMBH, priority 2021, published 2024).

Structures are written as SMILES.

For data set [1], the target named is KRAS (G12C)::SOS1 (Homo sapiens (Human), UniProt P01116, C118S/C51S/C80L/G12C). The experiment in a line: KRAS::SOS1 AlphaScreen binding assay, KRAS G12C. In outline:
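AlphaScreen measurement of compound disruption of biotinylated, GDP-loaded KRAS 1-169 (10 nM; G12C 7.5 nM) binding to GST-SOS1 564-1049 (5 nM with G12D/G12C, 10 nM otherwise), with 10 μM GDP in PBS/0.1% BSA/0.05% Tween 20. Timing was 30 min compound preincubation, then 60 min with beads at room temperature; top concentration 100 μM, 4-parameter IC50.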

For data set [2], the system named is KRAS G12D-dependent Ba/F3 cells. As to the kind of experiment: Ba/F3 proliferation assay, KRAS G12D. In kind it is cell-based. The settings on record: Mus musculus, BaF3, 72 h, AlamarBlue. The procedure, abridged: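 Cells: murine Ba/F3 transduced with mutant KRAS by retrovirus, selected with 1 μg/mL puromycin, then weaned off IL-3. Compound exposure in duplicate, followed by AlamarBlue viability staining and curve fitting.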

Data set [3] has as its target CYP3A4 (Homo sapiens (Human), UniProt P08684). As to the kind of experiment: Mechanism based inhibition of CYP3A4 assay (MBI 3A4). The note with it: hydroxy-midazolam formation after 30 min vs 0 min preincubation, 25 uM, human liver microsomes. In kind it is in vitro ADME. How it is done: After preincubation, the incubate is diluted 1:10 and the substrate midazolam is added for the main incubation (15 min). The main incubation is quenched with acetonitrile and the formation of hydroxy-midazolam is quantified via LC/MS-MS. The formation of hydroxy-midazolam from the 30 min preincubation relative to the formation from the 0 min preincubation is used as a readout. Values of less than 100% mean that the substrate midazolam is metabolized to a lower extent upon 30 min preincubation compared to 0 min preincubation. In general low effects upon 30 min preincubation are desired (corresponding to values close to 100%/not different to the values determined with water control).

KRAS (G12C)::SOS1, sequence (P01116 other isoform, or with tags, fused parts or gaps G12C/C51S/C80L/C118S): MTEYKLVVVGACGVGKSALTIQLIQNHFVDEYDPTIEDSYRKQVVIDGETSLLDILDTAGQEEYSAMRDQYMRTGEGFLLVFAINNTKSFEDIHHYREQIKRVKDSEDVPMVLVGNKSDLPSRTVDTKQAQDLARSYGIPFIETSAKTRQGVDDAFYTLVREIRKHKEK
CYP3A4, sequence (P08684 whole entry): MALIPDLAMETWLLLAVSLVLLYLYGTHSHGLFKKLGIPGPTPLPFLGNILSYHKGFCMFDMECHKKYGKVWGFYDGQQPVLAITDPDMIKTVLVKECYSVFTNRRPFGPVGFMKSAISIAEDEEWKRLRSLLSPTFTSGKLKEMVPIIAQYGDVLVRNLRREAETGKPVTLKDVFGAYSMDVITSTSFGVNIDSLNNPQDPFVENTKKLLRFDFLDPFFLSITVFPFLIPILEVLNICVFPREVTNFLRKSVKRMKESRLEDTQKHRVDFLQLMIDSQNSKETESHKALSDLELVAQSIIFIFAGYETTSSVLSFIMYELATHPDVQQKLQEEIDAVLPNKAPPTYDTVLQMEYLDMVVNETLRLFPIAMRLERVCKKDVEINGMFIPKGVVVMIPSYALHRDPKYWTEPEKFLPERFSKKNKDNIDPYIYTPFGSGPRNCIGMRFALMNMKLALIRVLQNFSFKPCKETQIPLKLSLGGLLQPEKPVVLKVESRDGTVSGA

Turning to `C[C@H](Oc1cc(-c2ccncc2)nc(-c2noc3c2CCC[C@@]32CCCc3sc(N)c(C#N)c32)n1)[C@@H]1CCCN1C` [II-78], the figures for the IC50 in data set [1] and in data set [2] were 2 nM and 87 nM, respectively. For the same compound, in data set [3], the “MBI 3A4” value came to 48%.
For `CC(=O)N1CC=C(c2cc(O[C@@H](C)[C@@H]3CCCN3C)nc(-c3noc4c3CCC[C@@]43CCCc4sc(N)c(C#N)c43)n2)CC1` [II-81] the same measures were 3 nM, 103 nM and 62%.
On the same counts, the results for `C[C@H](Oc1cc(-c2cncnc2)nc(-c2noc3c2CCC[C@@]32CCCc3sc(N)c(C#N)c32)n1)[C@@H]1CCCN1C` [II-82] are 3 nM, 200 nM and 73%.
Consider `C[C@H](Oc1cc(-c2ccccn2)nc(-c2noc3c2CCC[C@@]32CCCc3sc(N)c(C#N)c32)n1)[C@@H]1CCCN1C` [II-85], for which the IC50 came to 2 nM in data set [1] and 72 nM in data set [2]. In addition, in data set [3], the “MBI 3A4” value turned out to be 52%.
For `C[C@H](Oc1cc(-c2cnn(C)n2)nc(-c2noc3c2CCC[C@@]32CCCc3sc(N)c(C#N)c32)n1)[C@@H]1CCCN1C` [II-86] the same measures were 2 nM, 59 nM and 68%.
On the same counts, the results for `C[C@H](Oc1cc(-c2cn[nH]c2)nc(-c2noc3c2CCC[C@@]32CCCc3sc(N)c(C#N)c32)n1)[C@@H]1CCCN1C` [II-87] are 3 nM, 150 nM and 64%.
On the same counts, the results for `C[C@H](Oc1cc([C@H]2CCOC2)nc(-c2noc3c2CCC[C@@]32CCCc3sc(N)c(C#N)c32)n1)[C@@H]1CCCN1C` [II-88] are 2 nM, 15 nM and 77%.
As to `C[C@H](Oc1cc(-c2ccn(-c3ccccc3)n2)nc(-c2noc3c2CCC[C@@]32CCCc3sc(N)c(C#N)c32)n1)[C@@H]1CCCN1C` [II-89], the results for the half-maximal inhibitory concentration (IC50) in data set [1] and in data set [2] were 3 nM and 199 nM, respectively. Moreover, the “MBI 3A4” value in data set [3] is 73%.
`CO[C@@H]1C[C@@H]([C@H](C)Oc2cc(-c3ccn(C)n3)nc(-c3noc4c3CCC[C@@]43CCCc4sc(N)c(C#N)c43)n2)N(C)C1` [II-91]: the figures for the IC50 in data set [1] and in data set [2] were 2 nM and 65 nM, respectively. Besides, the “MBI 3A4” value in data set [3] turned out to be 68%.
On the same counts, the results for `C[C@H](Oc1cc([C@@H]2CCOC2)nc(-c2noc3c2CCC[C@@]32CCCc3sc(N)c(C#N)c32)n1)[C@@H]1CCCN1C` [II-94] are 1 nM, 11 nM and 71%.
For `C[C@H](Oc1cc(C2COCCO2)nc(-c2noc3c2CCC[C@@]32CCCc3sc(N)c(C#N)c32)n1)[C@@H]1CCCN1C` (stereo partly drawn) [II-95] the same measures were 2 nM, 81 nM and 68%.
For `C[C@H](Oc1cc(-c2ccn(C)n2)nc(-c2noc3c2CCC[C@@]32CCCc3sc(N)c(C#N)c32)n1)[C@@H]1CCCN1C` [II-96] the same measures were 2 nM, 23 nM and 85%.
As to `C[C@H](Oc1cc(-c2cccc(CO)c2)nc(-c2noc3c2CCC[C@@]32CCCc3sc(N)c(C#N)c32)n1)[C@@H]1CCCN1C` [II-97], the IC50 in data set [1] is 3 nM; in data set [2], 198 nM. Further, the “MBI 3A4” value in data set [3] amounted to 76%.
For `C[C@H](Oc1cc(-c2ccn(C3CC3)n2)nc(-c2noc3c2CCC[C@@]32CCCc3sc(N)c(C#N)c32)n1)[C@@H]1CCCN1C` [II-98] the same measures were 2 nM, 69 nM and 74%.
On the same counts, the results for `C[C@H](Oc1cc(N2CCC(C#N)C2)nc(-c2noc3c2CCC[C@@]32CCCc3sc(N)c(C#N)c32)n1)[C@@H]1CCCN1C` (stereo partly drawn) [II-99] are 3 nM, 83 nM and 78%.
On the same counts, the results for `Cc1nc(-c2cc(O[C@@H](C)[C@@H]3CCCN3C)nc(-c3noc4c3CCC[C@@]43CCCc4sc(N)c(C#N)c43)n2)cs1` [II-103] are 2 nM, 21 nM and 53%.
In the case of `C[C@H](Oc1cc(-c2ccn3ncnc3c2)nc(-c2noc3c2CCC[C@@]32CCCc3sc(N)c(C#N)c32)n1)[C@@H]1CCCN1C` [II-104], the IC50 is 2 nM in data set [1] and 78 nM in data set [2]. For the same compound, in data set [3], the “MBI 3A4” value is 78%.
On the same counts, the results for `C[C@H](Oc1cc(-n2cncc3ccnc2-3)nc(-c2noc3c2CCC[C@@]32CCCc3sc(N)c(C#N)c32)n1)[C@@H]1CCCN1C` [II-105] are 2 nM, 37 nM and 79%.
`Cc1cn(-c2cc(O[C@@H](C)[C@@H]3CCCN3C)nc(-c3noc4c3CCC[C@@]43CCCc4sc(N)c(C#N)c43)n2)nn1` [II-106]: the IC50 amounted to 4 nM in data set [1] and 107 nM in data set [2]. Besides, the “MBI 3A4” value in data set [3] amounted to 61%.
On the same counts, the results for `CO[C@@H]1C[C@@H]([C@H](C)Oc2cc(-c3ccn(C4COC4)n3)nc(-c3noc4c3CCC[C@@]43CCCc4sc(N)c(C#N)c43)n2)N(C)C1` [II-107] are 2 nM, 19 nM and 58%.
On the same counts, the results for `C[C@H](Oc1cc(-c2ccn(C3COC3)n2)nc(-c2noc3c2CCC[C@@]32CCCc3sc(N)c(C#N)c32)n1)[C@@H]1CCCN1C` [II-109] are 2 nM, 80 nM and 63%.
For `C[C@H](Oc1cc(-n2ccc(Br)n2)nc(-c2noc3c2CCC[C@@]32CCCc3sc(N)c(C#N)c32)n1)[C@@H]1CCCN1C` [II-110] the same measures were 2 nM, 51 nM and 67%.
As for `C[C@H](Oc1cc(-c2cnsc2)nc(-c2noc3c2CCC[C@@]32CCCc3sc(N)c(C#N)c32)n1)[C@@H]1CCCN1C` [II-111], the results for the half-maximal inhibitory concentration (IC50) in data set [1] and in data set [2] were 2 nM and 46 nM, respectively. In data set [3], the “MBI 3A4” value is on record as 76%.
On the same counts, the results for `C[C@H](O)Cn1ccc(-c2cc(O[C@@H](C)[C@@H]3CCCN3C)nc(-c3noc4c3CCC[C@@]43CCCc4sc(N)c(C#N)c43)n2)n1` [II-112] are 1 nM, 42 nM and 81%.
Regarding `COC(=O)c1ccc(-c2cc(O[C@@H](C)[C@@H]3CCCN3C)nc(-c3noc4c3CCC[C@@]43CCCc4sc(N)c(C#N)c43)n2)o1` [II-114], the IC50 worked out at 2 nM in data set [1] and 99 nM in data set [2]. Moreover, in data set [3], the “MBI 3A4” value stood at 85%.
On the same counts, the results for `C[C@H](Oc1cc(-c2ccn(C[C@@H](C)O)n2)nc(-c2noc3c2CCC[C@@]32CCCc3sc(N)c(C#N)c32)n1)[C@@H]1CCCN1C` [II-117] are 1 nM, 36 nM and 77%.
On the same counts, the results for `C[C@H](Oc1cc(-n2cc(C3CC3)nn2)nc(-c2noc3c2CCC[C@@]32CCCc3sc(N)c(C#N)c32)n1)[C@@H]1CCCN1C` [II-118] are 2 nM, 133 nM and 45%.
As to `C[C@H](Oc1cc(-n2ccc(-c3ccccn3)n2)nc(-c2noc3c2CCC[C@@]32CCCc3sc(N)c(C#N)c32)n1)[C@@H]1CCCN1C` [II-119], the IC50 came out at 2 nM in data set [1] and 51 nM in data set [2]. The “MBI 3A4” value in data set [3] stood at 52%.
